# Measurements published in patent publication US20070259948A1, “Compounds with antifungal properties and process thereof” (priority 2006, published 2007).
# Experiments:
# Test in all cases: Antifungal susceptibility testing (minimum inhibitory concentration), soyabean casein digest broth
# Format in all cases: cell-based
# A. niger = details: Aspergillus niger; end points after 48 hours, visually / spectrophotometer; NI till x = no inhibition up to x; read-out: Activity against organisms In μg/ml, A. niger (minimum inhibitory concentration)
# Procedure: (§1) In vitro evaluation of antifungal activity can be performed by determining the minimum inhibitory concentration. Anti-fungal susceptibility testing of these anti-fungal compounds was done by conventional method using soyabean casein digest broth. Known anti-fungal agents like Fluconazole and amphotericin-B were used as positive control. End points were determined after 48 hours visually and by using Spectrophotometer wherever necessary. Different dilutions were tried and the set of experiments.
# F. proliferatum = details: Fusarium proliferatum; end points after 48 hours, visually / spectrophotometer; NI till x = no inhibition up to x; read-out: Activity against organisms In μg/ml, F. proliferatum (minimum inhibitory concentration)
# Procedure: as §1
# C. albicans = details: Candida albicans; end points after 48 hours, visually / spectrophotometer; NI till x = no inhibition up to x; read-out: Activity against organisms In μg/ml, C. albicans (minimum inhibitory concentration)
# Procedure: as §1
Compound,MIC (A. niger) [µg/mL],MIC (F. proliferatum) [µg/mL],MIC (C. albicans) [µg/mL]
"O=C1OC(COC(=O)c2ccccc2)C=C1c1ccc(Cl)c(Cl)c1 (stereo not drawn) [1AA, 3,4-dichlorophenyl-5-benzoyloxymethyl-2H,5H-furan-2-one]",2,1,4
"O=C1OC(COC(=O)c2ccccc2)C=C1c1cccc(Cl)c1 (stereo not drawn) [1AB, 3-chlorophenyl-5-benzoyloxymethyl-2H,5H-furan-2-one]",2,0.5,2
"O=C1OC(COC(=O)c2ccccc2)C=C1c1cccc(Br)c1 (stereo not drawn) [1AC, 3-bromophenyl-5-benzoyloxymethyl-2H,5H-furan-2-one]",4,0.5,2
"O=C1OC(COC(=O)c2ccccc2)C=C1c1cccc(F)c1 (stereo not drawn) [1AD, 3-fluorophenyl-5-benzoyloxymethyl-2H,5H-furan-2-one]",1 to 2,1 to 2,1 to 2
"COc1ccc(C2=CC(COC(=O)c3ccccc3)OC2=O)cc1Br (stereo not drawn) [1AE, 3-bromo-4-methoxyphenyl-5-benzoyloxymethyl-2H,5H-furan-2-one]",> 2,> 2,> 2
"CC(=O)OCC1C=C(c2cccc(Br)c2)C(=O)O1 (stereo not drawn) [1BC, 3-bromophenyl-5-acetxymethyl-2H,5H-furan-2-one]",4,2,2
"CC(=O)OCC1C=C(c2cccc(F)c2)C(=O)O1 (stereo not drawn) [1BD, 3-fluorophenyl-5-acetxymethyl-2H,5H-furan-2-one]",1 to 2,1 to 2,1 to 2
"COc1ccc(C2=CC(COC(C)=O)OC2=O)cc1Br (stereo not drawn) [1BE, 3-bromo-4-methoxyphenyl-5-acetoxymethyl-2H,5H-furan-2-one]",4 to 8,8 to 16,2 to 4
"C=CCC(=O)OCC1C=C(c2ccc(Cl)c(Cl)c2)C(=O)O1 (stereo not drawn) [1CA, 3,4-dichlorophenyl-5-allyloyloxymethyl-2H,5H-furan-2-one]",1,1,2
"C=CCC(=O)OCC1C=C(c2cccc(Cl)c2)C(=O)O1 (stereo not drawn) [1CB, 3-chlorophenyl-5-allyloyloxymethyl-2H,5H-furan-2-one]",8,2,4
"C=CCC(=O)OCC1C=C(c2cccc(Br)c2)C(=O)O1 (stereo not drawn) [1CC, 3-bromophenyl-5-allyloyloxymethyl-2H,5H-furan-2-one]",8,2,4
"C=CCC(=O)OCC1C=C(c2ccc(OC)c(Br)c2)C(=O)O1 (stereo not drawn) [1CE, 3-bromo-4-methoxyphenyl-5-allyloyloxymethyl-2H,5H-furan-2-one]",> 8,> 8,2 to 4
"O=C1OC(COC(=O)c2cccs2)C=C1c1ccc(Cl)c(Cl)c1 (stereo not drawn) [1DA, 4-(3,4-dichlorophenyl)-5-oxo-2,5-dihydrofuran-2-ylmethyl thiophene-2-carboxylate]",1,2,2
"O=C1OC(COC(=O)c2cccs2)C=C1c1cccc(Cl)c1 (stereo not drawn) [1DB, 4-(3-chlorophenyl)-5-oxo-2,5-dihydrofuran-2-ylmethyl thiophene-2-carboxylate]",4,1,2
"O=C1OC(COC(=O)c2cccs2)C=C1c1cccc(Br)c1 (stereo not drawn) [1DC, 4-(3-bromophenyl)-5-oxo-2,5-dihydrofuran-2-ylmethyl thiophene-2-carboxylate]",8,2,2
"COc1ccc(C2=CC(COC(=O)c3cccs3)OC2=O)cc1Br (stereo not drawn) [1DE, 4-(3-bromo-4-methoxyphenyl)-5-oxo-2,5-dihydrofuran-2-ylmethyl thiophene-2-carboxylate]",> 2,> 2,> 2
"O=C1OC(COC(=O)c2ccsc2)C=C1c1ccc(Cl)c(Cl)c1 (stereo not drawn) [1EA, 4-(3,4-dichlorophenyl)-5-oxo-2,5-dihydrofuran-2-ylmethyl thiophene-3-carboxylate]",1,2,2
"O=C1OC(COC(=O)c2ccsc2)C=C1c1cccc(Cl)c1 (stereo not drawn) [1EB, 4-(3-chlorophenyl)-5-oxo-2,5-dihydrofuran-2-ylmethyl thiophene-3-carboxylate]",4,2,4

# Results, then the compound that gave them:
MIC (A. niger) [µg/mL],MIC (F. proliferatum) [µg/mL],MIC (C. albicans) [µg/mL],Compound
2,1,2,"O=C1OC(COC(=O)c2ccsc2)C=C1c1cccc(Br)c1 (stereo not drawn) [1EC, 4-(3-bromophenyl)-5-oxo-2,5-dihydrofuran-2-ylmethyl thiophene-3-carboxylate]"
> 2,> 2,> 2,"COc1ccc(C2=CC(COC(=O)c3ccsc3)OC2=O)cc1Br (stereo not drawn) [1EE, 4-(3-bromo-4-methoxyphenyl)-5-oxo-2,5-dihydrofuran-2-ylmethyl thiophene-3-carboxylate]"
> 4,> 4,> 4,"O=C1OC(COC(=O)c2cc(Br)c(Br)s2)C=C1c1ccc(Cl)c(Cl)c1 (stereo not drawn) [1FA, 4-(3,4-dichlorophenyl)-5-oxo-2,5-dihydrofuran-2-ylmethyl 4,5-dibromothiophene-2-carboxylate]"
2 to 4,1 to 2,1 to 2,"O=C1OC(COC(=O)c2cc(Br)c(Br)s2)C=C1c1cccc(Cl)c1 (stereo not drawn) [1FB, 4-(3-chlorophenyl)-5-oxo-2,5-dihydrofuran-2-ylmethyl 4,5-dibromothiophene-2-carboxylate]"
2 to 4,1 to 2,1 to 2,"O=C1OC(COC(=O)c2cc(Br)c(Br)s2)C=C1c1cccc(Br)c1 (stereo not drawn) [1FC, 4-(3-bromophenyl)-5-oxo-2,5-dihydrofuran-2-ylmethyl 4,5-dibromothiophene-2-carboxylate]"
2,2,4,"O=C(CCCl)OCC1C=C(c2ccc(Cl)c(Cl)c2)C(=O)O1 (stereo not drawn) [1GA, 4-(3,4-dichlorophenyl)-5-oxo-2,5-dihydrofuran-2-ylmethyl 3-chloropropionate]"
2,4,2,"O=C(CCCl)OCC1C=C(c2cccc(Cl)c2)C(=O)O1 (stereo not drawn) [1GB, 4-(3-chlorophenyl)-5-oxo-2,5-dihydrofuran-2-ylmethyl 3-chloropropionate]"
4,2,2,"O=C(CCCl)OCC1C=C(c2cccc(Br)c2)C(=O)O1 (stereo not drawn) [1GC, 4-(3-bromophenyl)-5-oxo-2,5-dihydrofuran-2-ylmethyl 3-chloropropionate]"
4 to 8,8 to 16,4 to 8,"COc1ccc(C2=CC(COC(=O)CCCl)OC2=O)cc1Br (stereo not drawn) [1GE, 4-(3-bromo-4-methoxyphenyl)-5-oxo-2,5-dihydrofuran-2-ylmethyl 3-chloropropionate]"
1 to 2,1 to 2,1 to 2,"O=C(CCCCl)OCC1C=C(c2ccc(Cl)c(Cl)c2)C(=O)O1 (stereo not drawn) [1HA, 4-(3,4-dichlorophenyl)-5-oxo-2,5-dihydrofuran-2-ylmethyl 4-chlorobutyrate]"
2 to 4,1 to 2,1 to 2,"O=C(CCCCl)OCC1C=C(c2cccc(Cl)c2)C(=O)O1 (stereo not drawn) [1HB, 4-(3-chlorophenyl)-5-oxo-2,5-dihydrofuran-2-ylmethyl 4-chlorobutyrate]"
4 to 8,1 to 2,1 to 2,"O=C(CCCCl)OCC1C=C(c2cccc(Br)c2)C(=O)O1 (stereo not drawn) [1HC, 4-(3-bromophenyl)-5-oxo-2,5-dihydrofuran-2-ylmethyl 4-chlorobutyrate]"
1 to 2,1 to 2,1 to 2,"O=C(CCCCl)OCC1C=C(c2cccc(F)c2)C(=O)O1 (stereo not drawn) [1HD, 4-(3-fluorophenyl)-5-oxo-2,5-dihydrofuran-2-ylmethyl 4-chlorobutyrate]"
> 4,> 4,> 4,"COc1ccc(C2=CC(COC(=O)CCCCl)OC2=O)cc1Br (stereo not drawn) [1HE, 4-(3-bromo-4-methoxyphenyl)-5-oxo-2,5-dihydrofuran-2-ylmethyl 4-chlorobutyrate]"
> 8,> 8,> 8,"COc1ccc(C2=CC(COC(=O)CCCCCl)OC2=O)cc1Br (stereo not drawn) [1IE, 4-(3-bromo-4-methoxyphenyl)-5-oxo-2,5-dihydrofuran-2-ylmethyl 5-chlorovalerate]"
> 2,> 2,> 2,"O=C1OC(COC(=O)c2cccc(I)c2)C=C1c1cccc(Cl)c1 (stereo not drawn) [1JB, 4-(3-chlorophenyl)-5-oxo-2,5-dihydrofuran-2-ylmethyl 3-iodobenzoate]"
> 4,> 4,2 to 4,"O=C1OC(COC(=O)c2cccc(I)c2)C=C1c1cccc(Br)c1 (stereo not drawn) [1JC, 4-(3-bromophenyl)-5-oxo-2,5-dihydrofuran-2-ylmethyl 3-iodobenzoate]"
> 2,> 2,> 2,"COc1ccc(C2=CC(COC(=O)c3cccc(I)c3)OC2=O)cc1Br (stereo not drawn) [1JE, 4-(3-bromo-4-methoxyphenyl)-5-oxo-2,5-dihydrofuran-2-ylmethyl 3-iodobenzoate]"
1 to 2,1 to 2,0.5 to 1,"O=C1OC(COC(=O)c2ccc[nH]2)C=C1c1cccc(Cl)c1 (stereo not drawn) [1KB, 4-(3-chlorophenyl)-5-oxo-2,5-dihydrofuran-2-ylmethyl pyrrole-2-carboxylate]"
2 to 4,1 to 2,1 to 2,"O=C1OC(COC(=O)c2ccc[nH]2)C=C1c1cccc(Br)c1 (stereo not drawn) [1KC, 4-(3-bromophenyl)-5-oxo-2,5-dihydrofuran-2-ylmethyl pyrrole-2-carboxylate]"
